# Assay results: ChEMBL document CHEMBL1201862, “PubChem BioAssay data set” (2004)
#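 Growth conditions: 96-well plates. Treatment: test compound, 48 hours, 5 concentrations. Analysis: linear interpolation between bracketing concentrations; unreached endpoints set to highest concentration. GI50 is the concentration that inhibits growth by half.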 Activity calls are given as the source filed them. Cut-off read from the data, not from the text of the source: active = GI50 up to about 1.1 µM and inactive = higher.
# Legend:
# Assay in all cases: inhibition of tumour cell growth, NCI panel, 48 h
# [1] = test system: UACC-257
# [2] = test system: Malme-3M
# [3] = test system: CCRF-CEM
# [4] = test system: COLO 205
# [5] = test system: UO-31
# [6] = test system: OVCAR-5
# [7] = test system: OVCAR-3
# [8] = test system: EKVX
# [9] = test system: KM12
# [10] = test system: SN12C
# [11] = test system: HT-29
# [12] = test system: MDA-MB-231
# [13] = test system: MCF7
# [14] = test system: SK-MEL-28
# [15] = test system: HOP-62
# [16] = test system: HCT-116
# [17] = test system: HCT-15
# [18] = test system: MDA-MB-435
# [19] = test system: SW-620
# [20] = test system: OVCAR-4
# [21] = test system: SF-268
# [22] = test system: MOLT-4
# [23] = test system: A549
# [24] = test system: UACC-62
# [25] = test system: Hs-578T
# [26] = test system: 786-0
# [27] = test system: HCC 2998
# [28] = test system: SF-539
# [29] = test system: IGROV-1
# [30] = test system: MDA-N
# [31] = test system: K562
# [32] = test system: M14
# [33] = test system: HOP-92
# [34] = test system: RPMI-8226
# [35] = test system: TK-10
# [36] = test system: DU-145
# [37] = test system: SK-MEL-2
# [38] = test system: NCI-H460
# [39] = test system: A498
# [40] = test system: T47D
# [41] = test system: LOX IMVI
# [42] = test system: SNB-19
# [43] = test system: SR
# [44] = test system: HL-60
# [45] = test system: SK-OV-3
# [46] = test system: NCI-H522
# [47] = test system: CAKI-1
# [48] = test system: NCI-H23
# [49] = test system: NCI/ADR-RES
# [50] = test system: OVCAR-8
# [51] = test system: RXF 393
# [52] = test system: U-251
# [53] = test system: BT-549
# [54] = test system: SK-MEL-5
# [55] = test system: SF-295
# [56] = test system: PC-3
# [57] = test system: ACHN
# [58] = test system: SNB-75
smiles,measurement,setting,value
CCOC(=O)Nc1ccc(S(=O)(=O)Nn2cnnc2)cc1,GI50,[1],> 100 µM (inactive)
same,GI50,[2],44.3 µM (inactive)
same,GI50,[3],23.9 µM (inactive)
same,GI50,[4],39.9 µM (inactive)
same,GI50,[5],60.1 µM (inactive)
same,GI50,[6],> 100 µM (inactive)
same,GI50,[7],27.9 µM (inactive)
same,GI50,[8],> 100 µM (inactive)
same,GI50,[9],36.2 µM (inactive)
same,GI50,[10],53.1 µM (inactive)
same,GI50,[11],20.3 µM (inactive)
same,GI50,[12],76.6 µM (inactive)
same,GI50,[13],41.2 µM (inactive)
same,GI50,[14],42.8 µM (inactive)
same,GI50,[15],51.6 µM (inactive)
same,GI50,[16],30.1 µM (inactive)
same,GI50,[17],50.1 µM
same,GI50,[18],16.4 µM (inactive)
same,GI50,[19],33.3 µM (inactive)
same,GI50,[20],17.5 µM (inactive)
same,GI50,[21],83.2 µM (inactive)
same,GI50,[22],50.7 µM (inactive)
same,GI50,[23],60.4 µM (inactive)
same,GI50,[24],33.8 µM (inactive)
same,GI50,[25],57.9 µM (inactive)
same,GI50,[26],46.5 µM (inactive)
same,GI50,[27],33.8 µM (inactive)
same,GI50,[28],22.4 µM (inactive)
same,GI50,[29],40.7 µM (inactive)
same,GI50,[30],22 µM (inactive)
same,GI50,[31],27.2 µM (inactive)
same,GI50,[32],43 µM (inactive)
same,GI50,[33],63.7 µM (inactive)
same,GI50,[34],22.6 µM (inactive)
same,GI50,[35],85.5 µM (inactive)
same,GI50,[36],> 100 µM (inactive)
same,GI50,[37],72.6 µM (inactive)
same,GI50,[38],50 µM (inactive)
same,GI50,[39],27.2 µM (inactive)
same,GI50,[40],> 100 µM (inactive)
same,GI50,[41],69.3 µM (inactive)
same,GI50,[42],> 100 µM (inactive)
same,GI50,[43],23.9 µM (inactive)
same,GI50,[44],38 µM (inactive)
same,GI50,[45],62.7 µM (inactive)
same,GI50,[46],48.1 µM (inactive)
same,GI50,[47],47.1 µM (inactive)
same,GI50,[48],> 100 µM (inactive)
same,GI50,[49],37.1 µM (inactive)
same,GI50,[50],> 100 µM (inactive)
same,GI50,[51],> 100 µM (inactive)
same,GI50,[52],44.3 µM (inactive)
same,GI50,[53],53.5 µM (inactive)
same,GI50,[54],23.9 µM (inactive)
same,GI50,[55],31.5 µM (inactive)
same,GI50,[56],57.4 µM (inactive)
same,GI50,[57],81.3 µM (inactive)
C=CCNC1=C2C[C@@H](C)C[C@@H](OC)[C@H](OC(=O)CN(C)C)[C@H](C)/C=C(\C)[C@@H](OC(N)=O)[C@H](OC)/C=C\C=C(/C)C(=O)NC(=CC1=O)C2=O,GI50,[1],0.0748 µM (active)
same,GI50,[2],0.0409 µM (active)
same,GI50,[3],3.08 µM (inactive)
same,GI50,[4],< 0.0126 µM (active)
same,GI50,[5],0.757 µM (active)
same,GI50,[6],10.3 µM (inactive)
same,GI50,[7],0.286 µM (active)
same,GI50,[8],1.28 µM (inactive)
same,GI50,[9],0.024 µM (active)
same,GI50,[10],0.0689 µM (active)
same,GI50,[11],< 0.01 µM (active)
same,GI50,[12],2.56 µM (inactive)
same,GI50,[13],0.0245 µM (active)
same,GI50,[14],0.0897 µM (active)
same,GI50,[15],0.0604 µM (active)
same,GI50,[16],0.0871 µM (active)
same,GI50,[17],0.535 µM
same,GI50,[18],0.042 µM (active)
same,GI50,[19],0.0228 µM (active)
same,GI50,[20],3.41 µM (inactive)
same,GI50,[21],2.54 µM (inactive)
same,GI50,[22],1.43 µM (inactive)
same,GI50,[23],0.0562 µM (active)
same,GI50,[24],0.0467 µM (active)
same,GI50,[25],13.3 µM (inactive)
same,GI50,[26],0.671 µM (active)
same,GI50,[27],0.0434 µM (active)
same,GI50,[28],0.071 µM (active)
same,GI50,[29],0.0942 µM (active)
same,GI50,[30],0.0281 µM (active)
same,GI50,[31],0.151 µM (active)
same,GI50,[32],0.0485 µM (active)
same,GI50,[33],6.12 µM (inactive)
same,GI50,[34],0.832 µM (active)
same,GI50,[35],0.0543 µM (active)
same,GI50,[36],< 0.01 µM (active)
same,GI50,[37],0.0608 µM (active)
same,GI50,[38],0.0479 µM (active)
same,GI50,[39],0.262 µM (active)
same,GI50,[40],4.82 µM (inactive)
same,GI50,[41],0.0641 µM (active)
same,GI50,[42],0.585 µM (active)
same,GI50,[43],< 0.0113 µM (active)
same,GI50,[44],0.406 µM (active)
same,GI50,[45],0.0279 µM (active)
same,GI50,[46],0.183 µM (active)
same,GI50,[47],1.29 µM (inactive)
same,GI50,[48],0.043 µM (active)
same,GI50,[49],8.22 µM (inactive)
same,GI50,[50],0.163 µM (active)
same,GI50,[58],0.114 µM (active)
same,GI50,[51],1.78 µM (inactive)
same,GI50,[52],0.188 µM (active)
same,GI50,[53],4.72 µM (inactive)
same,GI50,[54],0.0538 µM (active)
same,GI50,[55],0.128 µM (active)
same,GI50,[56],0.0495 µM (active)
same,GI50,[57],0.802 µM (active)
